In US9771341B2, “Piperazine carbamates and methods of making and using same” (Abide Therapeutics, Inc., priority 2015, dated 2017) one finds inhibition and IC50 data, which are given here for ten compounds.

Test [1] addresses T1, MAGL (Mus musculus, UniProt O35678).
T1 construct: Proteomes (mouse brain membrane fraction or cell lysates); from tissue; host or cells: mouse brain membrane fraction (or unspecified cell lysates)
T1 sequence (O35678 1-303): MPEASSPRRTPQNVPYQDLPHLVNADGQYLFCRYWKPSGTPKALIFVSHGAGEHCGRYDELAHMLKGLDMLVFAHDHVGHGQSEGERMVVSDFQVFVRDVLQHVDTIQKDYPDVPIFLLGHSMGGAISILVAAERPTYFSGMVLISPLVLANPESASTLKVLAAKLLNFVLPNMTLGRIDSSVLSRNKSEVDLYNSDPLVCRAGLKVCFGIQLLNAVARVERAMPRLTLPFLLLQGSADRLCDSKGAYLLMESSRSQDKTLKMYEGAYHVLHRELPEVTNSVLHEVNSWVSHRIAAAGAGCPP
As to the kind of experiment: In vitro competitive activity-based protein profiling (mouse), MAGL. The test is classed as biochemical. To be noted: for inhibition at 1 µM: mouse proteome, in vitro, read-out: % Inhibition at 1 μM MAGL; for IC50: mouse brain membrane fraction or cell lysates, 30 min preincubation at 37° C, FP-Rh probe. Here is the method: (§1) In Vitro Competitive Activity-Based Protein Profiling (Mouse).
(§2) Proteomes (mouse brain membrane fraction or cell lysates) (50 μL, 1.0 mg/mL total protein concentration) were preincubated with varying concentrations of inhibitors at 37° C. After 30 min, FP-Rh (1.0 μL, 50 μM in DMSO) was added and the mixture was incubated for another 30 min at 37° C. Reactions were quenched with SDS loading buffer (50 μL-4×) and run on SDS-PAGE.

Test [2] has as its target T2, ABHD6 (Mus musculus, UniProt Q8R2Y0).
T2 construct: Proteomes (mouse brain membrane fraction or cell lysates); from tissue; host or cells: mouse brain membrane fraction (or unspecified cell lysates)
T2 sequence (Q8R2Y0 1-336): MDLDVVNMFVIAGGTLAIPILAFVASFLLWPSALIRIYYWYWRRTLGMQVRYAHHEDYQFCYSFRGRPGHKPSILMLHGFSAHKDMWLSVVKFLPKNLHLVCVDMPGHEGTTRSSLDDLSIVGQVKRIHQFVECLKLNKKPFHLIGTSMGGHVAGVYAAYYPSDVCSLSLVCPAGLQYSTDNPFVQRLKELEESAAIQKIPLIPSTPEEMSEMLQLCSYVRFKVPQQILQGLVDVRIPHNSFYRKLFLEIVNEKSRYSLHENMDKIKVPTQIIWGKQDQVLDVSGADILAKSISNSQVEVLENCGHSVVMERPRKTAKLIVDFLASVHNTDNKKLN
Description: In vitro competitive activity-based protein profiling (mouse), ABHD6. Type of test: biochemical. The settings on record: for inhibition at 1 µM: mouse proteome, in vitro, read-out: % Inhibition at 1 μM ABHD6; for IC50: mouse brain membrane fraction or cell lysates, 30 min preincubation at 37° C, FP-Rh probe. Here is the method:
as §1, §2

Test [3] has as its target T2, ABHD6. Description: Mouse brain proteomes from inhibitor treated mice, ABHD6. Type of test: in vivo. The settings on record: 5 mg/kg oral gavage, C57Bl/6J mice, brain proteome 4 h after administration. The protocol: (§3) Preparation of Mouse Brain Proteomes from Inhibitor Treated Mice.
(§4) Inhibitors were administered to wild-type C57Bl/6J by oral gavage in a vehicle of polyethylene glycol.

Test [4] concerns the target T1, MAGL. Description: Mouse brain proteomes from inhibitor treated mice, MAGL. The test is classed as in vivo. The settings on record: 5 mg/kg oral gavage, C57Bl/6J mice, brain proteome 4 h after administration. Here is the method: as §3, §4
Test [5] has as its target T3, FAAH (Mus musculus, UniProt O08914).
T3 construct: Proteomes (mouse brain membrane fraction or cell lysates); from tissue; host or cells: mouse brain membrane fraction (or unspecified cell lysates)
T3 sequence (O08914 1-579): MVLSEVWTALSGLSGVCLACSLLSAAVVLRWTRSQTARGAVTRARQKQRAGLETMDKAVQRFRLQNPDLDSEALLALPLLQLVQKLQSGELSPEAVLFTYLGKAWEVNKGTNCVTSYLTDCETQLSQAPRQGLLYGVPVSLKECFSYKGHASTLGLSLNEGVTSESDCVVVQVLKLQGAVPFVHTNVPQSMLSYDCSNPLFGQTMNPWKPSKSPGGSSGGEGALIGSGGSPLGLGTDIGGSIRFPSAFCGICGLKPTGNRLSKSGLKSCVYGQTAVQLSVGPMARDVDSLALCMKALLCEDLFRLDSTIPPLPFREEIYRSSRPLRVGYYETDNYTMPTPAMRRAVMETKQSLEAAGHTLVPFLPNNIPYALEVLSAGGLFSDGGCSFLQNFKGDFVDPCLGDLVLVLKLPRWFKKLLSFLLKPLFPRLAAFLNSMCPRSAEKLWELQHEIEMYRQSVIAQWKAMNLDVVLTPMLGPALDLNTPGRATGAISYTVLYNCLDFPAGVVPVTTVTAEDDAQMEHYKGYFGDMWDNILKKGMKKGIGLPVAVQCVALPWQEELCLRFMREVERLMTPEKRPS
As to the kind of experiment: Mouse brain proteomes from inhibitor treated mice, FAAH. The test is classed as in vivo. The settings on record: 5 mg/kg oral gavage, C57Bl/6J mice, brain proteome 4 h after administration. Here is the method:
as §3
Inhibitors were administered to wild-type C57Bl/6J by oral gavage in a vehicle of polyethylene glycol. Each animal was sacrificed 4 h following administration and brain proteomes were prepared and analyzed according to previously established methods (See Niphakis, M. J., et al. (2011) ACS Chem. Neurosci. and Long, J. Z., et al. Nat. Chem. Biol. 5:37-44)

Test [6] concerns the target T3, FAAH. Description: In vitro competitive activity-based protein profiling (mouse), FAAH. Type of test: biochemical. To be noted: for inhibition at 1 µM: mouse proteome, in vitro; for IC50: mouse brain membrane fraction or cell lysates, 30 min preincubation at 37° C, FP-Rh probe. The method in brief: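 Mouse brain membrane fraction or cell lysates (1.0 mg/mL protein) preincubated with inhibitors 30 min at 37° C, then FP-Rh probe 30 min at 37° C. SDS-PAGE fluorescence band intensity gave FAAH activity.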

Broadly, the inhibition is the percentage by which the read-out fell short of the control. In general, IC50 refers to the point on the concentration scale where inhibition reaches its midpoint. A higher IC50 goes with lower potency.

The structures appear in SMILES notation.

With `O=C(OC(C(F)(F)F)C(F)(F)F)N1CCN(Cc2ccc(CN3CCOCC3)cc2OC(F)(F)F)CC1` [Example 23, 1,1,1,3,3,3-hexafluoropropan-2-yl 4-(4-(morpholinomethyl)-2-(trifluoromethoxy)benzyl)piperazine-1-carboxylate], the inhibition at 1 µM in test [1] was above 75%; in test [2] it was below 25%; in test [6] it was below 25%. The IC50 was below 100 nM in test [1], above 1000 nM in test [2] and above 1000 nM in test [6]. Moreover, the inhibition at 5 mg/kg in test [3] was below 25%; in test [4], above 75%; in test [5], below 25%.

Turning to `O=C(OC(C(F)(F)F)C(F)(F)F)N1CCN(Cc2ccc(C(F)(F)F)c(N3CC4CCC(C3)O4)c2)CC1` [Example 26, 1,1,1,3,3,3-hexafluoropropan-2-yl 4-(3-(8-oxa-3-azabicyclo[3.2.1]octan-3-yl)-4-(trifluoromethyl)benzyl)piperazine-1-carboxylate], the inhibition at 1 µM in test [1] was above 75%; in test [2], above 75%; in test [6] it was below 25%. Further, the figures for the IC50 in test [1], in test [2] and in test [6] were below 100 nM, 100 to 1000 nM and above 1000 nM, respectively. The inhibition at 5 mg/kg was above 75% in test [3], above 75% in test [4] and below 25% in test [5].

On to `O=C(OC(C(F)(F)F)C(F)(F)F)N1CCN(Cc2cccc(OC(F)(F)F)c2N2CC3CCC(C2)O3)CC1` [Example 31, 1,1,1,3,3,3-hexafluoropropan-2-yl 4-(2-(8-oxa-3-azabicyclo[3.2.1]octan-3-yl)-3-(trifluoromethoxy)benzyl)piperazine-1-carboxylate], for which the inhibition at 1 µM in test [1] was above 75%; in test [2], below 25%; in test [6], below 25%. In addition, the figures for the IC50 in test [1], in test [2] and in test [6] were below 100 nM, above 1000 nM and above 1000 nM, respectively. The inhibition at 5 mg/kg in test [3] was below 25%; in test [4] it was 25 to 75%; in test [5] it was below 25%.

As to `O=C(OC(C(F)(F)F)C(F)(F)F)N1CCN(Cc2cccc(OC(F)(F)F)c2N2CCC(N3CCCC3)CC2)CC1` [Example 32, 1,1,1,3,3,3-hexafluoropropan-2-yl 4-(2-(4-(pyrrolidin-1-yl)piperidin-1-yl)-3-(trifluoromethoxy)benzyl)piperazine-1-carboxylate], the values for the inhibition at 1 µM in test [1], in test [2] and in test [6] were above 75%, below 25% and below 25%, respectively. Besides, the IC50 is below 100 nM in test [1], above 1000 nM in test [2] and above 1000 nM in test [6]. Further, the inhibition at 5 mg/kg in test [3], in test [4] and in test [5] was below 25% in each case.

As to `NC(=O)C1CCN(c2cc(Cl)ccc2CN2CCN(C(=O)OC(C(F)(F)F)C(F)(F)F)CC2)CC1` [Example 33, 1,1,1,3,3,3-hexafluoropropan-2-yl 4-(2-(4-carbamoylpiperidin-1-yl)-4-chlorobenzyl)piperazine-1-carboxylate], the inhibition at 1 µM was above 75% in test [1], above 75% in test [2] and below 25% in test [6]. For the same compound, the IC50 is below 100 nM in test [1], 100 to 1000 nM in test [2] and above 1000 nM in test [6]. Moreover, the results for the inhibition at 5 mg/kg in test [3], in test [4] and in test [5] were above 75%, above 75% and below 25%, respectively.

Regarding `CN(C)C(=O)C1CCN(c2cc(C(F)(F)F)ccc2CN2CCN(C(=O)OC(C(F)(F)F)C(F)(F)F)CC2)CC1` [Example 35, 1,1,1,3,3,3-hexafluoropropan-2-yl 4-(2-(4-(dimethylcarbamoyl)piperidin-1-yl)-4-(trifluoromethyl)benzyl)piperazine-1-carboxylate], the inhibition at 1 µM in test [1] was above 75%; in test [2] it was below 25%; in test [6], below 25%. The IC50 is below 100 nM in test [1], above 1000 nM in test [2] and above 1000 nM in test [6]. The results for the inhibition at 5 mg/kg in test [3], in test [4] and in test [5] were below 25%, above 75% and below 25%, respectively.

For `CS(=O)(=O)N[C@@H]1CCN(c2cc(Cl)ccc2CN2CCN(C(=O)OC(C(F)(F)F)C(F)(F)F)CC2)C1` [Example 39, 1,1,1,3,3,3-hexafluoropropan-2-yl (R)-4-(4-chloro-2-(3-(methylsulfonamido)pyrrolidin-1-yl)benzyl)piperazine-1-carboxylate], the inhibition at 1 µM in test [1] is above 75%; in test [2], 25 to 75%; in test [6], below 25%. In addition, the IC50 in test [1] was below 100 nM; in test [2] it was above 1000 nM; in test [6] it was above 1000 nM. For the same compound, the inhibition at 5 mg/kg in test [3] is 25 to 75%; in test [4], above 75%; in test [5] it was below 25%.

For `CS(=O)(=O)N[C@H]1CCN(c2cc(Cl)ccc2CN2CCN(C(=O)OC(C(F)(F)F)C(F)(F)F)CC2)C1` [Example 40, 1,1,1,3,3,3-hexafluoropropan-2-yl (S)-4-(4-chloro-2-(3-(methylsulfonamido)pyrrolidin-1-yl)benzyl)piperazine-1-carboxylate], the inhibition at 1 µM in test [1] is above 75%; in test [2], below 25%; in test [6], below 25%. For the same compound, the IC50 in test [1] was below 100 nM; in test [2], above 1000 nM; in test [6], above 1000 nM. Moreover, the inhibition at 5 mg/kg in test [3] was below 25%; in test [4], above 75%; in test [5], below 25%.

On to `O=C(OC(C(F)(F)F)C(F)(F)F)N1CCN(Cc2ccc(Cl)cc2N2CC[C@@H](N3CCCC3=O)C2)CC1` [Example 41, 1,1,1,3,3,3-hexafluoropropan-2-yl (R)-4-(4-chloro-2-(2-oxo-[1,3′-bipyrrolidin]-1′-yl)benzyl)piperazine-1-carboxylate], for which the figures for the inhibition at 1 µM in test [1], in test [2] and in test [6] were above 75%, 25 to 75% and below 25%, respectively. Also, the results for the IC50 in test [1], in test [2] and in test [6] were below 100 nM, above 1000 nM and above 1000 nM, respectively. In addition, the inhibition at 5 mg/kg is below 25% in test [3], above 75% in test [4] and below 25% in test [5].

Regarding `O=C(OC(C(F)(F)F)C(F)(F)F)N1CCN(Cc2ccc(Cl)cc2N2CC[C@H](N3CCCC3=O)C2)CC1` [Example 42, 1,1,1,3,3,3-hexafluoropropan-2-yl (S)-4-(4-chloro-2-(2-oxo-[1,3′-bipyrrolidin]-1′-yl)benzyl)piperazine-1-carboxylate], the inhibition at 1 µM in test [1] was above 75%; in test [2] it was 25 to 75%; in test [6] it was below 25%. Besides, the IC50 in test [1] is below 100 nM; in test [2], 100 to 1000 nM; in test [6], above 1000 nM. Also, the inhibition at 5 mg/kg in test [3] was below 25%; in test [4] it was above 75%; in test [5], below 25%.
